Assays:
[1] = tested on: A549 cells; assay: MTT cell proliferation (cytotoxicity) assay; assay type: cell-based, Human
Procedure: The MTT assay was performed in the A549 cell lines to measure the cytotoxicity of dihydroaustrasulfone alcohol. All cell lines were seeded in 96-well plates with 2×10^4 cells/well in culture medium. Dihydroaustrasulfone alcohol was dissolved in PBS. The cells were treated with various concentrations of dihydroaustrasulfone alcohol as indicated in each figure. After 24 h, the number of viable cells was determined. Then, 5 mg/mL MTT was added to each well, and the plate was incubated at 37° C. for 3 h. The medium was removed, and 50 μL DMSO was added. The absorbance at 590 nm was measured for each well on an ELISA reader. The data are presented as the mean±SEM of three independent experiments.

[2] = tested on: A549 cells; assay: Flow cytometry analysis of cell cycle and apoptosis (sub-G1); assay type: cell-based, Human; details: 20 and 40 μg/mL, treatment for 24 h
Procedure: A549 cells (2×10^5) were seeded into each well of a 12-well plate (TPP; Techno Plastic Products AG, Trasadingen, Switzerland) 24 h before being treated with various concentrations of dihydroaustrasulfone alcohol for 24 h. The cells were harvested with trypsin-EDTA, washed twice with 10 mL ice-cold PBS, fixed in 70% (v/v) ethanol, and kept at 4° C. The cells were then stained with propidium iodide (PI) [100 μg/mL PI, 0.2% (v/v) Nonidet P-40, and 1 mg/mL RNase A (DNase-free) in PBS lacking Ca^2+ and Mg^2+ at a 1:1:1 ratio by volume] and the DNA contents were analyzed with flow cytometry (Becton Dickinson, San Jose, Calif., USA). The intensity of PI fluorescence was linearly amplified, and both the area and width of the fluorescence pulse were measured. Ten thousand events were acquired, and the percentage of hypodiploid (apoptosis, sub-G1) events and the percentages of cells in the G0/G1, S and G2/M phases were determined using the DNA analysis software ModFitL T, version 2.0 (Verity Software, Topsham, Me., USA).

[3] = tested on: A549 cells; assay: Wound healing assay; assay type: cell-based, Human; details: 30 and 40 μg/mL, 18 h
Procedure: For cell motility determination, A549 cells (2×10^5 cells/mL) were seeded in a 12-well tissue culture plate. After one day, the center of the cell monolayers was scraped with a sterile micropipette tip to create a straight zone (gap) of constant width. Then, each well was washed with PBS, and A549 cells were exposed to various concentrations of dihydroaustrasulfone alcohol (20, 30 or 40 μg/mL). Wound closure was monitored and photographed at 0 h and 18 h with a Nikon inverted microscope. To quantify the migrated cells, pictures of the initial wounded monolayers were compared with the corresponding pictures of cells at the end of the incubation. Artificial lines fitting the cutting edges were drawn on pictures of the original wounds and overlaid on the pictures of cultures after incubation. Cells that had migrated across the white lines were counted in six random fields from each triplicate treatment.

[4] = tested on: A549 cells; assay: Trans-well cell migration assay; assay type: cell-based, Human; details: 30 or 40 μg/mL
Procedure: Tumor cell migration was assayed in trans-well chambers (Millipore) according to the method reported by Huang et al. (Lai, K. C.; Huang, A. C.; Hsu, S. C.; Kuo, C. L.; Yang, J. S.; Wu, S. H.; Chung, J. G. Benzyl isothiocyanate (BITC) inhibits migration and invasion of human colon cancer HT29 cells by inhibiting matrix metalloproteinase-2/-9 and urokinase plasminogen (uPA) through PKC and MAPK signaling pathway. J. Agric. Food Chem. 2010, 58, 2935-2942), with some modifications. Briefly, trans-well chambers with 6.5 mm polycarbonate filters of […] pore size were used. A549 cells (1×10^4 cells/mL) and 20, 30 or 40 μg/mL of dihydroaustrasulfone alcohol were suspended in F-12 (100 μL, serum free), placed in the upper trans-well chamber, and incubated for 24 h at 37° C. Then, the cells on the upper surface of the filter were completely wiped away with a cotton swab, and the lower surface of the filter was fixed in methanol, stained with 10% Giemsa solution, and counted under a microscope at a magnification of 200×. For each replicate, the tumor cells in 10 randomly selected fields were determined and the counts were averaged.

[5] = tested on: MMP-2; assay: Gelatin zymography of A549 conditioned medium, MMP-2; assay type: cell-based, Human; details: A549 cells, 20, 30, or 40 μg/mL, 24 h
Procedure: (§1) Phytomedicine 2012, 19, 768-778). Briefly, the culture medium was electrophoresed (80 V for 120 min) in an 8% SDS-PAGE gel containing 0.1% gelatin. The gel was then washed at room temperature in a solution containing 2.5% (v/v) Triton X-100 with two changes and subsequently transferred to a reaction buffer for enzymatic reaction containing 1% NaN3; 10 mM CaCl2; and 40 mM Tris-HCl, pH 8.0; at 37° C. with shaking overnight (for 12-15 h). Finally, the MMP gel was stained for […] with 0.25% (w/v) Coomassie blue in 10% acetic acid (v/v) and 20% methanol (v/v) and destained in 10% acetic acid (v/v) and 20% methanol (v/v).

[6] = tested on: MMP-9; assay: Gelatin zymography of A549 conditioned medium, MMP-9; assay type: cell-based, Human; details: A549 cells, 20, 30, or 40 μg/mL, 24 h
Procedure: as §1

[7] = tested on: FAK; assay: Western blotting in A549 cells, FAK phosphorylation; assay type: cell-based, Human; details: A549 cells, 20, 30, or 40 μg/mL, 24 h
Procedure: (§2) A549 cells were plated in 10-cm dishes at a density of 3×10^6 cells per dish and incubated with 20, 30 or 40 μg/mL dihydroaustrasulfone alcohol in F-12 containing 1% (v/v) FBS for 24 h. The cells were collected, lysed in a lysis solution, and then incubated at 25° C. for 10 min. Total proteins were separated with SDS-PAGE before being transferred to PVDF membranes. The membranes were blocked with 5% (v/v) nonfat dry milk in PBS-Tween 20 for one hour and changed to an appropriate dilution of specific primary antibodies in TBS-T buffer overnight at 4° C. The blots were then incubated with horseradish peroxidase-linked secondary antibody for 1 h and then developed with the […] (ECL) reagent and exposed to Hyperfilm (Amersham, Arlington Height, Ill., USA). The data were analyzed by Gel-Logic 200 Imaging Systems, Molecular Imaging Software.

[8] = tested on: ERK1/2; assay: Western blotting in A549 cells, ERK1/2 phosphorylation; assay type: cell-based, Human; details: A549 cells, 20, 30, or 40 μg/mL, 24 h
Procedure: as §2

[9] = tested on: JNK1/2; assay: Western blotting in A549 cells, JNK1/2 phosphorylation; assay type: cell-based, Human; details: A549 cells, 20, 30, or 40 μg/mL, 24 h
Procedure: as §2

[10] = tested on: AKT; assay: Western blotting in A549 cells, AKT phosphorylation; assay type: cell-based, Human; details: A549 cells, 20, 30, or 40 μg/mL, 24 h
Procedure: as §2

[11] = tested on: PI3K; assay: Western blotting in A549 cells, PI3K protein level; assay type: cell-based, Human; details: A549 cells, 20, 30, or 40 μg/mL, 24 h
Procedure: as §2

[12] = tested on: Lewis lung carcinoma (LLC); assay: Lewis lung carcinoma-bearing tumor model, tumor size; assay type: in vivo, C57BL/6J mice; details: 8 or 16 mg/kg IP daily, 14-day treatment
Procedure: (§3) The animal experiments were approved by the Institutional Animal Care and Use Committee of China Medical University (approval ID: 102-194-C). All animal care followed the institutional animal ethical guidelines of China Medical University. C57BL/6J male mice (average 25-28 g; 6 weeks old) were obtained from the Laboratory Animal Center, College of Medicine, National Taiwan University (Taipei, Taiwan). The C57BL/6J mice were kept on a 12 h light/dark cycle at 25° C. C57BL/6J mice were subcutaneously implanted with LLC cells (7×10^5 cells in 100 μL). The treatment of dihydroaustrasulfone alcohol start while all the tumors volume were larger than 100 mm^3. Eighteen mice were randomly assigned to three treatment groups (6 animals per group). Group I (untreated group) was subcutaneously grafted with LLC cells and given vehicle solvent. Group II was grafted with LLC cells and then treated with dihydroaustrasulfone alcohol (8 mg/kg). Group III was grafted with LLC cells and then treated with dihydroaustrasulfone alcohol (16 mg/kg). The dihydroaustrasulfone alcohol was diluted in normal saline and administered by IP. Body weight and tumor volume were measured every week after cell injection. The tumor width (W) and length (L) were measured every week by calipers, and the tumor volume was calculated as L×W2×0.52. The mice were treated daily for 2 weeks and then sacrificed.

[13] = Lewis lung carcinoma-bearing tumor model, body weight; assay type: in vivo, C57BL/6J mice; details: 8 or 16 mg/kg IP, days 8 or 14
Procedure: as §3

## CC(=O)CCS(=O)(=O)CCO [dihydroaustrasulfone alcohol]
[1]; 60, 80, and 100 μg/mL, 24 h
  cell viability: significantly suppressed
[1]; Homo sapiens, A549, 24 h, read-out: IC50, viability of A549 cells
  IC50: 273 µM
[2]
  apoptosis in the sub-G1 phase: no effect
[3]
  migration of A549 cells (wound healing): significantly decreased
[4]
  migration of A549 cells (trans-well): significantly decreased
[5]
  activity of MMP-2: significantly inhibited
[6]
  activity of MMP-9: significantly inhibited
[7]
  phosphorylation of FAK: reduced phosphorylation of FAK
[8]
  phosphorylation of ERK1/2: inhibited
[9]
  phosphorylation of JNK1/2: inhibited
[10]
  phosphorylation of AKT: decrease in the phosphorylation
[11]
  protein levels of PI3K: inhibited the protein levels of PI3K in a dose-dependent manner
[12]
  tumor size compared with the LLC control group: significantly reduced
[13]
  body weights compared with the LLC control group: not significantly different

Reference: patent publication US9238620B1, “Pharmaceutical uses of sulfur-containing compound” (NATIONAL SUN YAT-SEN UNIVERSITY, priority 2014, dated 2016)
